In patent US12202835B2, “Substituted aromatic ring-linked dioxinoquinazolines and dioxinoquinolines as kinase inhibitors” (BEIJING SCITECH-MQ PHARMACEUTICALS LIMITED, priority 2018, dated 2025) one finds IC50 data, which are given here for 17 molecules.

One experiment concerns the target VEGFR-2 kinase (Homo sapiens (Human), UniProt P35968). Briefly: Assay of small molecular compounds for inhibiting the activity of VEGFR-2 kinase (LANCE TR-FRET). It is filed as biochemical. The settings on record: read-out: VEGFR2 IC50. Put shortly: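 LANCE TR-FRET with human VEGFR-2 (2× stock 0.5 nM) preincubated 30 min with compound (final 2500 to 0.042 nM, 11-point 3-fold), then ULight-JAK-1 (Tyr1023) peptide/ATP added (4× stocks 200 nM/40 μM). Reaction 60 min room temperature, 4% DMSO; IC50 from inhibition-rate curve.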

A further experiment concerns MHCC97H cells. Briefly: Assay for inhibiting the proliferation of MHCC97H cells (CCK-8). It is filed as cell-based. As to the method: In particular, the method of the assay of small molecular compounds for inhibiting cell proliferation is as follows: • 1. Cells cultured to a logarithmic growth phase (adherent cells need to be digested with trypsin and neutralized) were taken, pipetted evenly, transferred to a 15 mL centrifuge tube, and centrifuged at 1000 rpm at room temperature for 4 minutes; • 2. The supernatant was discarded; 5 mL of complete medium was added and pipetted evenly; 10 μL of cell suspension was taken out, mixed well with 10 μL of 0.4% trypan blue, and counted under a cell counter; the proportion of living cells was ensured to be above 90%; • 3. 80 μL of cell suspension per well was seeded into a 96-well plate according to the conditions shown in the attached table, and cultured overnight; in the outer 36 wells of the 96-well plate, no cells were added but only sterile water was added; only the inner 60 wells were used for cell assay and control; • 4. 5×compound dilution: the compounds were serially diluted 3-fold to obtain a total of 9 concentrations; 80-fold overall dilution was completed with complete medium, the resulting concentration was 5 times the final drug concentration, and DMSO concentration was 1.25%; • 5. 20 μL of the corresponding compounds with different concentration gradients were added to each well of assay wells of the 96-well plate; 20 μL of complete medium was added to positive and negative control wells and shaken well; and the final concentration of DMSO in each well was 0.25%; • 6. After 72 hours of incubation, 10 μL of CCK-8 reagent was added to each well and further incubated at 37° C. for 1-2 hours; and the OD value was read at 450 nm; • 7. Cell survival rate (%)=[(As−Ab)/(Ac−Ab)]*100% • As: Assay well (medium containing cells, CCK-8, compound), • Ac: Control well (medium containing cells, CCK-8), • Ab: Blank well (CCK-8, medium without cell and compound), • 8. The values were imported into Graphpad Prism 5 software for IC50 calculation.

In a further experiment the target is c-MET kinase (Homo sapiens (Human), UniProt P08581). Briefly: Assay of small molecular compounds for inhibiting the activity of c-MET kinase (LANCE TR-FRET). It is filed as biochemical. Particulars: read-out: CMET IC50. Put shortly: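 LANCE TR-FRET assay with c-MET at 1 nM final after a 5 min room-temperature preincubation with compound (11-point, 3-fold series, 2500–0.042 nM final, 4% DMSO). ULight-JAK-1 (Tyr1023) peptide (100 nM final) and ATP (10 μM final) reacted 60 min in the dark. Inhibition was taken relative to controls, then IC50 fitted.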
Sequence of c-MET kinase (P08581 25-1390): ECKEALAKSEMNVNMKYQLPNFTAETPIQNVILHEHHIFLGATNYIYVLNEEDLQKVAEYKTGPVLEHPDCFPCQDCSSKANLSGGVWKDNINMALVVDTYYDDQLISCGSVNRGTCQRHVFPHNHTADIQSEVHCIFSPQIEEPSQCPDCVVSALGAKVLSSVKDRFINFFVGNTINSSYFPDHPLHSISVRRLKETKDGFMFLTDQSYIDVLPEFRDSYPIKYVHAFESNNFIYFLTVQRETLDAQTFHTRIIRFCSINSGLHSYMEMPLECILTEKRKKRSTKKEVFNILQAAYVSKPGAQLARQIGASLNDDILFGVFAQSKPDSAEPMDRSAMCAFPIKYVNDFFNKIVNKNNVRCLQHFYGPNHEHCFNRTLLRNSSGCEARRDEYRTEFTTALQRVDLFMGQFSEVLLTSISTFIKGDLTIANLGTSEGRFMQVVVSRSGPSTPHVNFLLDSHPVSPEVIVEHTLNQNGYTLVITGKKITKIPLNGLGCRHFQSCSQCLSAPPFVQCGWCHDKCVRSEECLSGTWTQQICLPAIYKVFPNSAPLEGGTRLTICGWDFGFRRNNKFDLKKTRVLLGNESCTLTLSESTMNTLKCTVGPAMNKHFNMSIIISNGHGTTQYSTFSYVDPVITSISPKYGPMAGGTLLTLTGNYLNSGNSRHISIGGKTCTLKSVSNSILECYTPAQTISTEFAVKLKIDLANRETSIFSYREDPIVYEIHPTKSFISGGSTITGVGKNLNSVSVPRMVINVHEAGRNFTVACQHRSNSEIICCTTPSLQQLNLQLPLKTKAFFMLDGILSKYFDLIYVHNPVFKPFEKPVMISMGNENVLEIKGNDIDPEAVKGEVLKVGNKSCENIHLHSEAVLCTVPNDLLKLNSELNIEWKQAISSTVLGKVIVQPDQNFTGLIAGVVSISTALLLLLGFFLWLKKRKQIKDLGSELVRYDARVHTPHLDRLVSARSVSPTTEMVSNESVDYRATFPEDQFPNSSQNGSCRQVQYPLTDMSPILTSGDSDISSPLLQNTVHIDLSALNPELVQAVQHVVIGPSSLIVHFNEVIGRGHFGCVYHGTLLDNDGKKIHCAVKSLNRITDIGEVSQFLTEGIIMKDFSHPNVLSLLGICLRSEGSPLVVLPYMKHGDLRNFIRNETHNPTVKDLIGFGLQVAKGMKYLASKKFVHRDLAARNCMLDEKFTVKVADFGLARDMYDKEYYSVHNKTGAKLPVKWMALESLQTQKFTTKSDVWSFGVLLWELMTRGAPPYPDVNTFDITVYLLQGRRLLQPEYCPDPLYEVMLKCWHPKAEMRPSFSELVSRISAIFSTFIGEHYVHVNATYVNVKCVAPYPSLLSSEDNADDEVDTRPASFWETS

pIC50: −log10 of the molar value. Like-named read-outs stand apart in the source and are kept apart here.

Sequence of VEGFR-2 kinase (P35968 20-1356): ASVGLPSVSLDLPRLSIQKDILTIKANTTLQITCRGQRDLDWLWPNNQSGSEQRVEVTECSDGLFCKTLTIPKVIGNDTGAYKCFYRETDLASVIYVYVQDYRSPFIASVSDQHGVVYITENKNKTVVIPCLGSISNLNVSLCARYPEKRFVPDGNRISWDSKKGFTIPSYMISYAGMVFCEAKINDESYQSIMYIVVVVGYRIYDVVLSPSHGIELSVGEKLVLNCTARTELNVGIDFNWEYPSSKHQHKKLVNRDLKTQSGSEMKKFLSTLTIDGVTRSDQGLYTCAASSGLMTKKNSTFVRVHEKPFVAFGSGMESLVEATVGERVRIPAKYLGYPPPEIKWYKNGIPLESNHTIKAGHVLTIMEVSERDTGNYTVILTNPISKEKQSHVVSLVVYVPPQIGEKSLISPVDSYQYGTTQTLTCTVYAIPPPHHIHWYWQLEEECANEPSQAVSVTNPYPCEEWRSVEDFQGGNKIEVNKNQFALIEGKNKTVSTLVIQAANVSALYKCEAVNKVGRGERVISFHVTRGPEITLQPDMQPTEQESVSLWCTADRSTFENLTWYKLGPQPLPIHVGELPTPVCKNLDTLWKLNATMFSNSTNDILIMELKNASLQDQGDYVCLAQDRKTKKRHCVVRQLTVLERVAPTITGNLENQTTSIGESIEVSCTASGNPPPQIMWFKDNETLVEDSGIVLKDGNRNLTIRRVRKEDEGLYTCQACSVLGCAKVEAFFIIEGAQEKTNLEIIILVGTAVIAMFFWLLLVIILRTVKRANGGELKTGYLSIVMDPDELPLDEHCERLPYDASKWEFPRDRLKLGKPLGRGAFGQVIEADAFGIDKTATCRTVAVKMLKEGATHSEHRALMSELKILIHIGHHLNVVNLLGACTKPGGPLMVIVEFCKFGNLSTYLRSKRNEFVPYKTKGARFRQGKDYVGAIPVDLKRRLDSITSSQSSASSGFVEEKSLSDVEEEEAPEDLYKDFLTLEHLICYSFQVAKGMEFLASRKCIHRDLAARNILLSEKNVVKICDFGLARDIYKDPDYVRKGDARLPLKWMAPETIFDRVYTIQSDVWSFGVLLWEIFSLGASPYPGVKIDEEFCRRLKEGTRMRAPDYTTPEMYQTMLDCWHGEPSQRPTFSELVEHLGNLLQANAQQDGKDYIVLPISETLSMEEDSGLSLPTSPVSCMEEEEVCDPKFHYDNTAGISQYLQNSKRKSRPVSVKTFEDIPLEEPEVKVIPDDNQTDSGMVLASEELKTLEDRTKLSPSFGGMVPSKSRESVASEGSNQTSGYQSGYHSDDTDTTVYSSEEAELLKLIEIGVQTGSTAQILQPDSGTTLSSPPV

`CCOc1ccn(-c2ccc(F)cc2)c(=O)c1C(=O)Nc1ccc(Oc2ccnc3cc(OCCCN4CCOCC4)c4c(c23)OCCO4)c(F)c1` [Example 22, N-(3-fluoro-4-((5-(3-morpholinopropoxy)-2,3-dihydro-[1,4]dioxino[2,3-f]quinolin-10-yl)oxy)phenyl)-1-(4-fluorophenyl)-4-ethoxy-2-oxo-1,2-dihydropyridine-3-carboxamide]: the pIC50 on VEGFR-2 kinase, with MHCC97H cells (Homo sapiens) and at c-MET kinase was at least 7.30 in each case.

Regarding `COc1ccn(-c2ccc(F)cc2)c(=O)c1C(=O)Nc1ccc(Oc2ccnc3cc(OCCCN4CCOCC4)c4c(c23)OCCO4)c(F)c1` [Example 21, N-(3-fluoro-4-((5-(3-morpholinopropoxy)-2,3-dihydro-[1,4]dioxino[2,3-f]quinolin-10-yl)oxy)phenyl)-1-(4-fluorophenyl)-4-methoxy-2-oxo-1,2-dihydropyridine-3-carboxamide], the pIC50 on VEGFR-2 kinase, with MHCC97H cells (Homo sapiens) and on c-MET kinase was at least 7.30 in each case.

Take `O=C(Nc1ccc(Oc2ccnc3cc(OCCCN4CCCCC4)c4c(c23)OCCO4)c(F)c1)c1cccn(-c2ccc(F)cc2)c1=O` [Example 31, N-(3-fluoro-4-((5-(3-(piperidin-1-yl)propoxy)-2,3-dihydro-[1,4]dioxino[2,3-f]quinolin-10-yl)oxy)phenyl)-1-(4-fluorophenyl)-2-oxo-1,2-dihydropyridine-3-carboxamide]: the pIC50 on VEGFR-2 kinase, with MHCC97H cells and at c-MET kinase was at least 7.30 throughout.

With `CCOc1ccn(-c2ccc(F)cc2)c(=O)c1C(=O)Nc1cc(F)c(Oc2ccnc3cc(OC)c4c(c23)OCCO4)cc1Cl` [Example 115, N-(2-chloro-5-fluoro-4-((5-methoxy-2,3-dihydro-[1,4]dioxino[2,3-f]quinolin-10-yl)oxy)phenyl)-4-ethoxy-2-oxo-1-(4-fluorophenyl)-1,2-dihydropyridin-3-carboxamide], the pIC50 on VEGFR-2 kinase is 5.30 to 6.30; in the experiment with MHCC97H cells (Homo sapiens), at least 7.30; on c-MET kinase it was at least 7.30.

Consider `C=CCn1cc(C(=O)Nc2ccc(Oc3ccnc4cc(OC)c5c(c34)OCCO5)c(F)c2)c(=O)n(-c2ccc(F)cc2)c1=O` [Example 100, N-(3-fluoro-4-((5-methoxy-2,3-dihydro-[1,4]dioxino[2,3-f]quinolin-10-yl)oxy)phenyl)-3-(4-fluorophenyl)-1-allyl-2,4-dioxo-1,2,3,4-tetrahydropyrimidine-5-carboxamide], for which the negative-log IC50 (pIC50) on VEGFR-2 kinase is 5.30 to 6.30; in the experiment with MHCC97H cells (Homo sapiens) it was at least 7.30; on c-MET kinase it was at least 7.30.

Consider `COc1cn(-c2ccc(F)cc2C)nc1C(=O)Nc1ccc(Oc2ccnc3cc(OCCCN4CCOCC4)c4c(c23)OCCO4)c(F)c1` [Example 27, 1-(4-fluoro-2-methylphenyl)-N-(3-fluoro-4-((5-(3-morpholinopropoxy)-2,3-dihydro-[1,4]dioxino[2,3-f]quinolin-10-yl)oxy)phenyl)-4-methoxy-1H-pyrazole-3-carboxamide], for which the pIC50 at VEGFR-2 kinase is at least 7.30; in the experiment with MHCC97H cells (Homo sapiens) it was 6.70 to 7.30; on c-MET kinase it was at least 7.30.

For `CC(C)n1cc(C(=O)Nc2ccc(Oc3ccnc4cc(OCCCN5CCC(C)(O)CC5)c5c(c34)OCCO5)c(F)c2)c(=O)n(-c2ccc(F)cc2)c1=O` [Example 94, N-(3-fluoro-4-((5-(3-(4-methyl-4-hydroxypiperidin-1-yl)propoxy)-2,3-dihydro-[1,4]dioxino[2,3-f]quinolin-10-yl)oxy)phenyl)-3-(4-fluorophenyl)-1-isopropyl-2,4-dioxo-1,2,3,4-tetrahydropyrimidine-5-carboxamide], the pIC50 at VEGFR-2 kinase was 5.30 to 6.30; on c-MET kinase, at least 7.30.

With `COc1ccn(-c2ccc(F)cc2)c(=O)c1C(=O)Nc1ccc(Oc2ccnc3cc(OCCCN4CCCCC4)c4c(c23)OCCO4)cc1Cl` [Example 136, N-(2-chloro-4-((5-((3-piperidin-1-yl)propoxy)-2,3-dihydro-[1,4]dioxino[2,3-f]quinolin-10-yl)oxy)phenyl)-1-(4-fluorophenyl)-4-methoxy-2-oxo-1,2-dihydropyridine-3-carboxamide], the values for the pIC50 on VEGFR-2 kinase and at c-MET kinase were 6.30 to 7.30 and at least 7.30, respectively.

`COCCOc1cc2nccc(Oc3ccc(NC(=O)c4cn(C)c(=O)n(-c5ccc(F)cc5)c4=O)c(F)c3)c2c2c1OCCO2` [Example 155, N-(2-fluoro-4-((5-(2-methoxyethoxy)-2,3-dihydro-[1,4]dioxino[2,3-f]quinolin-10-yl)oxy)phenyl)-3-(4-fluorophenyl)-1-methyl-2,4-dioxo-1,2,3,4-tetrahydropyrimidine-5-carboxamide]: the pIC50 on VEGFR-2 kinase was 5.30 to 6.30; on c-MET kinase it was at least 7.30.

As for `CC(C)n1cc(C(=O)Nc2ccc(Oc3ccnc4cc(OCCCN5CCOCC5)c5c(c34)OCCO5)c(Cl)c2)c(=O)n(-c2ccc(F)cc2)c1=O` [Example 97, N-(3-chloro-4-((5-(3-morpholinopropoxy)-2,3-dihydro-[1,4]dioxino[2,3-f]quinolin-10-yl)oxy)phenyl)-3-(4-fluorophenyl)-1-isopropyl-2,4-dioxo-1,2,3,4-tetrahydropyrimidine-5-carboxamide], the pIC50 on VEGFR-2 kinase was 5.30 to 6.30; on c-MET kinase, 6.30 to 7.30.

Turning to `O=C(Nc1ccc(Oc2ccnc3ccc4c(c23)OCCO4)c(F)c1)c1cccn(-c2ccc(F)cc2)c1=O` [Example 169, N-(4-((2,3-dihydro-[1,4]dioxino[2,3-f]quinolin-10-yl)oxy)-3-fluorophenyl)-1-(4-fluorophenyl)-2-oxo-1,2-dihydropyridine-3-carboxamide], the pIC50 at VEGFR-2 kinase was 6.30 to 7.30; on c-MET kinase, at least 7.30.

Regarding `CCOc1ccn(-c2ccc(F)cc2)c(=O)c1C(=O)Nc1ccc(Oc2ccnc3cc(OC)c4c(c23)OCCO4)cc1Cl` [Example 126, N-(2-chloro-4-((5-methoxy-2,3-dihydro-[1,4]dioxino[2,3-f]quinolin-10-yl)oxy)phenyl)-1-(4-fluorophenyl)-4-ethoxy-2-oxo-1,2-dihydropyridine-3-carboxamide], the pIC50 at VEGFR-2 kinase is 6.30 to 7.30; on c-MET kinase it was at least 7.30.

On to `COCCN(C)CCCOc1cc2nccc(Oc3ccc(NC(=O)c4cn(C(C)C)c(=O)n(-c5ccc(F)cc5)c4=O)cc3F)c2c2c1OCCO2` [Example 95, N-(3-fluoro-4-((5-(3-((2-methoxyethyl)(methyl)amino)propoxy)-2,3-dihydro-[1,4]dioxino[2,3-f]quinolin-10-yl)oxy)phenyl)-3-(4-fluorophenyl)-1-isopropyl-2,4-dioxo-1,2,3,4-tetrahydropyrimidine-5-carboxamide], for which the negative logarithm of the IC50 (pIC50) on VEGFR-2 kinase was 5.30 to 6.30; at c-MET kinase, at least 7.30.

As to `CC(C)n1cc(C(=O)Nc2ccc(Oc3ccnc4cc(OCCCN5CCCCC5)c5c(c34)OCCO5)c(F)c2)c(=O)n(-c2ccc(F)cc2)c1=O` [Example 40, N-(3-fluoro-4-((5-(3-(piperidin-1-yl)propoxy)-2,3-dihydro-[1,4]dioxino[2,3-f]quinolin-10-yl)oxy)phenyl)-3-(4-fluorophenyl)-1-isopropyl-2,4-dioxo-1,2,3,4-tetrahydropyrimidine-5-carboxamide], the negative-log IC50 (pIC50) was 6.30 to 7.30 at VEGFR-2 kinase and at least 7.30 on c-MET kinase.

`COc1ccn(-c2ccc(F)cc2)c(=O)c1C(=O)Nc1ccc(Oc2ccnc3cc(OCC(C)(C)O)c4c(c23)OCCO4)cc1Cl` [Example 140, N-(2-chloro-4-((5-(2-hydroxy-2-methylpropoxy)-2,3-dihydro-[1,4]dioxino[2,3-f]quinolin-10-yl)oxy)phenyl)-1-(4-fluorophenyl)-4-methoxy-2-oxo-1,2-dihydropyridine-3-carboxamide]: the pIC50 at VEGFR-2 kinase is 5.30 to 6.30; at c-MET kinase, at least 7.30.

As for `O=C(Nc1ccc(Oc2ccnc3cc(OCCCN4CCCCC4)c4c(c23)OCCO4)cc1Cl)c1cccn(-c2ccc(F)cc2)c1=O` [Example 135, N-(2-chloro-4-((5-((3-piperidin-1-yl)propoxy)-2,3-dihydro-[1,4]dioxino[2,3-f]quinolin-10-yl)oxy)phenyl)-1-(4-fluorophenyl)-2-oxo-1,2-dihydropyridine-3-carboxamide], the pIC50 at VEGFR-2 kinase and at c-MET kinase was at least 7.30 throughout.

Take `CC(C)(O)COc1cc2nccc(Oc3ccc(NC(=O)c4cccn(-c5ccc(F)cc5)c4=O)c(Cl)c3)c2c2c1OCCO2` [Example 139, N-(2-chloro-4-((5-(2-hydroxy-2-methylpropoxy)-2,3-dihydro-[1,4]dioxino[2,3-f]quinolin-10-yl)oxy)phenyl)-1-(4-fluorophenyl)-2-oxo-1,2-dihydropyridine-3-carboxamide]: the pIC50 is 6.30 to 7.30 on VEGFR-2 kinase and at least 7.30 on c-MET kinase.
